Source: ChEMBL document CHEMBL3045734, “Synthesis of Mannich Bases of 2, 6-Disubstituted 2H-pyran-3(6H)-ones and their Miticidal Activity” (1994)

Assays:
Type in all cases: functional
Tetranychus urticae [1] = assay: Miticidal activity against Tetranychus urticae (two-spotted spider mite) in kidney beans assessed as mortality under greenhouse at 600 ppm at 25 +/- 2 degC measured after 48 hr of spray
Tetranychus urticae [2] = assay: Miticidal activity against Tetranychus urticae (two-spotted spider mite) in kidney beans assessed as mortality under greenhouse at 300 ppm at 25 +/- 2 degC measured after 48 hr of spray
Tetranychus urticae [3] = assay: Miticidal activity against Tetranychus urticae (two-spotted spider mite) in kidney beans assessed as mortality under greenhouse at 100 ppm at 25 +/- 2 degC measured after 48 hr of spray
Tetranychus urticae [4] = assay: Miticidal activity against Tetranychus urticae (two-spotted spider mite) in kidney beans assessed as mortality under greenhouse at 50 ppm at 25 +/- 2 degC measured after 48 hr of spray
Tetranychus kanzawai [5] = assay: Miticidal activity against Tetranychus kanzawai in kidney beans assessed as mortality under greenhouse at 100 ppm at 25 +/- 2 degC measured after 48 hr of spray
Panonychus citri [6] = assay: Miticidal activity against Panonychus citri in satsuma mandarin assessed as mortality under greenhouse at 300 ppm at 25 +/- 2 degC measured after 48 hr of spray
Panonychus citri [7] = assay: Miticidal activity against Panonychus citri in satsuma mandarin assessed as mortality under greenhouse at 50 ppm at 25 +/- 2 degC measured after 48 hr of spray
Panonychus citri [8] = assay: Miticidal activity against Panonychus citri in satsuma mandarin assessed as mortality under greenhouse at 100 ppm at 25 +/- 2 degC measured after 48 hr of spray
Panonychus citri [9] = assay: Miticidal activity against Panonychus citri in satsuma mandr assessed as next generation adult mites under greenhouse at 300 ppm at 25 +/- 2 degC measured after 14 days of spray relative to control
Tetranychus kanzawai [10] = assay: Miticidal activity against Tetranychus kanzawai in kidney beans assessed as next generation adult mites under greenhouse at 300 ppm at 25 +/- 2 degC measured after 14 days of spray relative to control
Tetranychus kanzawai [11] = assay: Miticidal activity against Tetranychus kanzawai in kidney beans assessed as mortality under greenhouse at 300 ppm at 25 +/- 2 degC measured after 48 hr of spray
Tetranychus kanzawai [12] = assay: Miticidal activity against Tetranychus kanzawai in kidney beans assessed as mortality under greenhouse at 50 ppm at 25 +/- 2 degC measured after 48 hr of spray
Tetranychus urticae [13] = assay: Miticidal activity against Tetranychus urticae (two-spotted spider mite) in kidney beans assessed as next generation adult mites under greenhouse at 300 ppm at 25 +/- 2 degC measured after 14 days of spray relative to control

In the case of `COC1C=C(CN2CCCCC2)C(=O)CO1` (centres undefined), the mortality at 600 ppm (Tetranychus urticae [1]) is reported as 70% and the mortality at 300 ppm (Tetranychus urticae [2]) is reported as 10%.
`CCN(CC)CC1=CC(OC)OC(C2CCCCC2)C1=O` (centres undefined) gave a mortality at 600 ppm (Tetranychus urticae [1]) of 60%.
Work on `COC1C=C(CN2CCOCC2)C(=O)C(C2CCCCC2)O1` (centres undefined) yielded a mortality at 600 ppm (Tetranychus urticae [1]) of 90% and a mortality at 300 ppm (Tetranychus urticae [2]) of 65%.
In the case of `CCCCCCC1OC(OC(C)(C)C)C=C(CN2CCCCC2)C1=O` (centres undefined), the mortality at 100 ppm (Tetranychus urticae [3]) is reported as 75%, the mortality at 300 ppm (Tetranychus urticae [2]) is reported as 95% and the mortality at 50 ppm (Tetranychus urticae [4]) is reported as 50%.
`CCCCCCC1OC(OC)C=C(CN2CCOCC2)C1=O` (centres undefined) showed a mortality at 600 ppm (Tetranychus urticae [1]) of 90% and a mortality at 300 ppm (Tetranychus urticae [2]) of 65%.
Compound `CCCCCCC1OC(OC2CCCCC2)C=C(CN2CCCCC2)C1=O` (centres undefined) has a mortality at 100 ppm (Tetranychus urticae [3]) of 82%, a mortality at 300 ppm (Tetranychus urticae [2]) of 100% and a mortality at 50 ppm (Tetranychus urticae [4]) of 40%.
For `CCCCCC1OC(OC)C=C(CN2CCCCC2)C1=O` (centres undefined), the mortality at 100 ppm (Tetranychus urticae [3]) was 20%, the mortality at 600 ppm (Tetranychus urticae [1]) was 100% and the mortality at 300 ppm (Tetranychus urticae [2]) was 95%.
`CCCCCCC1OC(OC(C)C)C=C(CN2CCCCC2)C1=O` (centres undefined) gave a mortality at 100 ppm (Tetranychus urticae [3]) of 100%, a mortality at 100 ppm (Tetranychus kanzawai [5]) of 100% and a mortality at 300 ppm (Panonychus citri [6]) of 100%. It also gave a mortality at 50 ppm (Panonychus citri [7]) of 88%, a mortality at 100 ppm (Panonychus citri [8]) of 100% and an Activity (Panonychus citri [9]) of 91%. It also gave a mortality at 300 ppm (Tetranychus urticae [2]) of 100%, an Activity (Tetranychus kanzawai [10]) of 90% and a mortality at 300 ppm (Tetranychus kanzawai [11]) of 100%. The mortality at 50 ppm (Tetranychus urticae [4]) was 90%, the mortality at 50 ppm (Tetranychus kanzawai [12]) was 93% and the Activity (Tetranychus urticae [13]) was 93%.
For `CCCCCCC1OC(OCC(C)C)C=C(CN2CCCCC2)C1=O` (centres undefined), the mortality at 100 ppm (Tetranychus urticae [3]) was 92%, the mortality at 300 ppm (Tetranychus urticae [2]) was 100% and the mortality at 50 ppm (Tetranychus urticae [4]) was 75%.
`CCCC1OC(OC)C=C(CN2CCCCC2)C1=O` (centres undefined) showed a mortality at 600 ppm (Tetranychus urticae [1]) of 90% and a mortality at 300 ppm (Tetranychus urticae [2]) of 20%.
Compound `CCCCCCC1OC(OC)C=C(CN2CCCCC2C)C1=O` (centres undefined) has a mortality at 600 ppm (Tetranychus urticae [1]) of 90% and a mortality at 300 ppm (Tetranychus urticae [2]) of 60%.
In the case of `COC1C=C(CN2CCCCC2)C(=O)C(C2CCCCC2)O1` (centres undefined), the mortality at 100 ppm (Tetranychus urticae [3]) is reported as 68%, the mortality at 600 ppm (Tetranychus urticae [1]) is reported as 100% and the mortality at 300 ppm (Tetranychus urticae [2]) is reported as 100%.
`CCCCCCC1OC(OC)C=C(CN2CCCC2)C1=O` (centres undefined) was tested, and the mortality at 600 ppm (Tetranychus urticae [1]) was 70%.
With `COC1C=C(CN2CCCCC2C)C(=O)C(C2CCCCC2)O1` (centres undefined) the mortality at 600 ppm (Tetranychus urticae [1]) was 80% and the mortality at 300 ppm (Tetranychus urticae [2]) was 55%.
Compound `CCCCC1OC(OC)C=C(CN2CCCCC2)C1=O` (centres undefined) has a mortality at 100 ppm (Tetranychus urticae [3]) of 10%, a mortality at 600 ppm (Tetranychus urticae [1]) of 90% and a mortality at 300 ppm (Tetranychus urticae [2]) of 87%.
Work on `CCCCCCC1OC(Oc2ccccc2)C=C(CN2CCCCC2)C1=O` (centres undefined) yielded a mortality at 100 ppm (Tetranychus urticae [3]) of 20% and a mortality at 300 ppm (Tetranychus urticae [2]) of 60%.
Compound `CCCCCCCCCCC1OC(OC)C=C(CN2CCCCC2)C1=O` (centres undefined) has a mortality at 100 ppm (Tetranychus urticae [3]) of 20%, a mortality at 600 ppm (Tetranychus urticae [1]) of 95% and a mortality at 300 ppm (Tetranychus urticae [2]) of 70%.
`CCCCCCCCCCCCC1OC(OC)C=C(CN2CCCCC2)C1=O` (centres undefined) was tested, and the mortality at 600 ppm (Tetranychus urticae [1]) was 90% and the mortality at 300 ppm (Tetranychus urticae [2]) was 65%.
For `COC1C=C(CN2CCC(C)CC2)C(=O)C(C2CCCCC2)O1` (centres undefined), the mortality at 100 ppm (Tetranychus urticae [3]) was 60%, the mortality at 600 ppm (Tetranychus urticae [1]) was 100% and the mortality at 300 ppm (Tetranychus urticae [2]) was 85%.
In the case of `CCCCCCC1OC(OC)C=C(CN2CCC(C)CC2)C1=O` (centres undefined), the mortality at 100 ppm (Tetranychus urticae [3]) is reported as 70%, the mortality at 600 ppm (Tetranychus urticae [1]) is reported as 100% and the mortality at 300 ppm (Tetranychus urticae [2]) is reported as 95%.
Compound `CCCCCCC1OC(OC)C=C(CN(CCCC)CCCC)C1=O` (centres undefined) has a mortality at 600 ppm (Tetranychus urticae [1]) of 75%.
`CCCCCCC1OC(OCC)C=C(CN2CCCCC2)C1=O` (centres undefined) showed a mortality at 100 ppm (Tetranychus urticae [3]) of 70%, a mortality at 300 ppm (Tetranychus urticae [2]) of 100% and a mortality at 50 ppm (Tetranychus urticae [4]) of 40%.
Work on `COC1C=C(CN2CCCCC2)C(=O)C(c2ccccc2)O1` (centres undefined) yielded a mortality at 600 ppm (Tetranychus urticae [1]) of 30%.
In the case of `CCCCCCC1OC(OC)C=C(CN(CC)CC)C1=O` (centres undefined), the mortality at 600 ppm (Tetranychus urticae [1]) is reported as 60%.
In the case of `COC1C=C(CN2CCCC2)C(=O)C(C2CCCCC2)O1` (centres undefined), the mortality at 600 ppm (Tetranychus urticae [1]) is reported as 68%.
`COC1C=C(CN2CCCC(C)C2)C(=O)C(C2CCCCC2)O1` (centres undefined) showed a mortality at 100 ppm (Tetranychus urticae [3]) of 65%, a mortality at 600 ppm (Tetranychus urticae [1]) of 100% and a mortality at 300 ppm (Tetranychus urticae [2]) of 83%.
`CCCCCCOC1C=C(CN2CCCCC2)C(=O)C(CCCCCC)O1` (centres undefined) was tested, and the mortality at 100 ppm (Tetranychus urticae [3]) was 70%, the mortality at 300 ppm (Tetranychus urticae [2]) was 85% and the mortality at 50 ppm (Tetranychus urticae [4]) was 45%.
Work on `CCCCCCC1OC(OC)C=C(CN2CCCC(C)C2)C1=O` (centres undefined) yielded a mortality at 100 ppm (Tetranychus urticae [3]) of 55%, a mortality at 600 ppm (Tetranychus urticae [1]) of 100% and a mortality at 300 ppm (Tetranychus urticae [2]) of 85%.
In the case of `CCCCCCC1OC(OCc2ccccc2)C=C(CN2CCCCC2)C1=O` (centres undefined), the mortality at 100 ppm (Tetranychus urticae [3]) is reported as 40% and the mortality at 300 ppm (Tetranychus urticae [2]) is reported as 55%.
`CCCCCCC1OC(OCCCC)C=C(CN2CCCCC2)C1=O` (centres undefined) gave a mortality at 100 ppm (Tetranychus urticae [3]) of 75%, a mortality at 300 ppm (Tetranychus urticae [2]) of 100% and a mortality at 50 ppm (Tetranychus urticae [4]) of 40%.
`CCCCCCCCC1OC(OC)C=C(CN2CCCCC2)C1=O` (centres undefined) showed a mortality at 100 ppm (Tetranychus urticae [3]) of 50%, a mortality at 600 ppm (Tetranychus urticae [1]) of 100% and a mortality at 300 ppm (Tetranychus urticae [2]) of 90%.
With `CCCCCCC1OC(OCCC)C=C(CN2CCCCC2)C1=O` (centres undefined) the mortality at 100 ppm (Tetranychus urticae [3]) was 100%, the mortality at 300 ppm (Tetranychus urticae [2]) was 100% and the mortality at 50 ppm (Tetranychus urticae [4]) was 70%.
With `CCCCCCC1OC(OC)C=C(CN2CCCCC2)C1=O` (centres undefined) the mortality at 100 ppm (Tetranychus urticae [3]) was 77%, the mortality at 600 ppm (Tetranychus urticae [1]) was 100% and the mortality at 300 ppm (Tetranychus urticae [2]) was 100%. The mortality at 50 ppm (Tetranychus urticae [4]) was 40%.
In the case of `CCCCN(CCCC)CC1=CC(OC)OC(C2CCCCC2)C1=O` (centres undefined), the mortality at 600 ppm (Tetranychus urticae [1]) is reported as 70%.
